Data as given in US20120041019A1, “PROTEASE INHIBITORS” (priority 2008, published 2012).
Where two headings read alike, the source gives them in different places.

Legend:
HIV-1 Protease = biological target: T1, HIV-1 Protease (Human immunodeficiency virus type 1 group M subtype B, UniProt P04585); experiment: Cell free assay (SensoLyte 490 HIV-1 Protease Assay Kit); format: biochemical
T1 construct: SensoLyte™ 490 HIV-1 Protease Assay Kit
Protocol: Procedure—cell free assay. The cell free assays were conducted according to the test kit protocol provided with the SensoLyte™ 490 HIV-1 Protease Assay Kit, available from AnaSpec (San Jose, Calif.).

HIV-1LAI = experiment: Cell infectivity assay (HIV-1LAI infection of CEM-T4 cells, p24 readout); format: cell-based; conditions: for IC50: Human immunodeficiency virus 1, CEM-T4 cells infected with HIV-1LAI, read-out: HIV PI IC50 (nM) (Cell Infectivity Assay); for loss in potency between cell free assay experiments and cell infectivity assay experiments: comparison of cell free and cell infectivity IC50
Protocol: Procedure—cell infectivity assay. The T-cell-tropic strain HIV-1LAI was used to infect CEM-T4 cells over a dose range of the protease inhibitor compounds. CEM-T4 cells were grown in RPMI 1640 medium supplemented with 10% heat-inactivated fetal bovine serum, penicillin (100 units/mL), streptomycin (100 ug/mL), and polybrene (2 ug/mL) at 37° C. with 5% CO2. The PI dose range covered a total of nine 3:1 dilutions from 5000 nM to less than 1 nM. The tittered virus was added to wells of CEM cells (pre-treated with protease inhibitor [PI] dilution series for 1 h) at a low multiplicity of infection (MOI=0.01) and incubated for 4 h at 37° C. The cells then were washed three times with PBS (GIBCO/BRL), resuspended in triplicate wells each with 1 ml of culture medium containing the same concentration of PI as the initial pre-incubation and further incubated at 37° C. in 5% CO2. Each well of the 24-well plate contains 1×10̂5 cells upon incubation initiation. The cells were fed every two days with fresh PI at the appropriate concentration. Samples were scored for cytopathic effect on day 4, and if consistent CPE was seen throughout the various wells, the supernatants was collected for p24 assay. Otherwise, the cultures were maintained with feeding every other day until day 8, at which point the p24 were initiated.

[1] = Table 2 Activity Data, read-out: HIV PI IC50 (nM) (Cell-Free Assay)

Row | SMILES | IC50 (HIV-1LAI) [nM] | loss in potency between cell free assay experiments and cell infectivity assay experiments (HIV-1LAI) | IC50 (HIV-1 Protease; [1]) [nM] | further results
1 | CCC(C)(C)C(=O)C(=O)N1CCCCC1C(=O)OC(CCc1ccc(OC)c(OC)c1)c1cccc(OCC(=O)NC(CC(N)=O)C(=O)NC(Cc2ccccc2)C(CN(CC(C)C)S(=O)(=O)c2ccc(N)cc2)OC)c1 (stereo not drawn) [Compound A7] | 14 | little or no loss in potency | – | IC50 (HIV-1 Protease): 6.6 nM
2 | CCC(C)(C)C(=O)C(=O)N1CCCCC1C(=O)OC(CCc1ccc(OC)c(OC)c1)c1cccc(OCC(=O)NC(C(=O)NC(Cc2ccccc2)C(O)CN(CC(C)C)S(=O)(=O)c2ccc(N)cc2)C(C)C)c1 (stereo not drawn) [Compound A5] | 3.3 | little or no loss in potency | – | IC50 (HIV-1 Protease): 7.9 nM
3 | CCC(C)(C)C(=O)C(=O)N1CCCCC1C(=O)OC(CCc1ccc(OC)c(OC)c1)c1cccc(OCCNC(=O)NC(CC(N)=O)C(=O)NC(Cc2ccccc2)C(CN(CC(C)C)S(=O)(=O)c2ccc(N)cc2)OC)c1 (stereo not drawn) [Compound A9] | 2.3 | little or no loss in potency | – | IC50 (HIV-1 Protease): 1.8 nM
4 | CCC(C)(C)C(=O)C(=O)N1CCCC[C@H]1C(=O)O[C@H](CCc1ccc(OC)c(OC)c1)c1cccc(NC(=O)CCC(=O)N[C@@H](Cc2ccccc2)[C@H](O)CC(CC(C)C)S(=O)(=O)c2ccc([N+](=O)[O-])cc2)c1 (stereo partly drawn) [Compound A8] | – | – | – | IC50 (HIV-1 Protease; assay not named, follows the cell free data of Table 2, read-out: IC50 value): 339 nM
5 | CCC(C)(C)C(=O)C(=O)N1CCCCC1C(=O)OC(CCc1ccc(OC)c(OC)c1)c1cccc(OCCNC(=O)CCCOC(=O)NC(Cc2ccccc2)C(O)CN(CC(C)C)S(=O)(=O)c2ccc([N+](=O)[O-])cc2)c1 (stereo not drawn) [Compound A3] | – | – | 11.5 | –
6 | Cc1cccc(C)c1OCC(=O)N[C@@H](Cc1ccccc1)[C@@H](O)C[C@H](Cc1ccccc1)NC(=O)[C@H](C(C)C)N1CCCNC1=O [Lopinavir, lopinavir, reference compound] | 18.9 | significant loss of potency | – | IC50 (HIV-1 Protease; Table 1 Activity data, read-out: HIV PI IC50 (nM) (Cell free assay)): 0.9 nM
7 | CCC(C)(C)C(=O)C(=O)N1CCCCC1C(=O)OC(CCc1ccc(OC)c(OC)c1)c1cccc(OCC(=O)NCCCOC(=O)NC(Cc2ccccc2)C(O)CN(CC(C)C)S(=O)(=O)c2ccc(N)cc2)c1 (stereo not drawn) [Compound A2] | – | – | 7.3 | –
8 | CCC(C)(C)C(=O)C(=O)N1CCCCC1C(=O)OC(CCc1ccc(OC)c(OC)c1)c1cccc(OCC(=O)NCCCOC(=O)NC(Cc2ccccc2)C(O)CN(CC(C)C)S(=O)(=O)c2ccc([N+](=O)[O-])cc2)c1 (stereo not drawn) [Compound A1] | – | – | 24 | –
9 | CC(C)CN(C[C@@H](O)[C@H](Cc1ccccc1)NC(=O)O[C@H]1CCOC1)S(=O)(=O)c1ccc(N)cc1 [Amprenavir, amprenavir, reference compound] | 171 | significant loss of potency | – | –
10 | CCC(C)(C)C(=O)C(=O)N1CCCCC1C(=O)OC(CCc1ccc(OC)c(OC)c1)c1cccc(OCCNC(=O)CCCOC(=O)NC(Cc2ccccc2)C(O)CN(CC(C)C)S(=O)(=O)c2ccc(N)cc2)c1 (stereo not drawn) [Compound A6] | – | – | 5.6 | –
11 | CCC(C)(C)C(=O)C(=O)N1CCCCC1C(=O)OC(CCc1ccc(OC)c(OC)c1)c1cccc(OCCNC(=O)COCC2OCCC2OC(=O)NC(Cc2ccccc2)C(O)CN(CC(C)C)S(=O)(=O)c2ccc(N)cc2)c1 (stereo not drawn) [Compound A13] | – | – | 51 | –
12 | CCC(C)(C)C(=O)C(=O)N1CCCCC1C(=O)OC(CCc1ccc(OC)c(OC)c1)c1cccc(OCCNC(=O)NC(C(=O)NC(Cc2ccccc2)C(O)CN(CC(C)C)S(=O)(=O)c2ccc(N)cc2)C(C)C)c1 (stereo not drawn) [Compound A10] | 48.1 | – | – | IC50 (HIV-1 Protease): 3.9 nM
13 | CCC(C)(C)C(=O)C(=O)N1CCCCC1C(=O)OC(CCc1ccc(OC)c(OC)c1)c1cccc(OCC(=O)NCCCOC(=O)NC(Cc2ccccc2)C(O)CN(CC(C)C)S(=O)(=O)c2ccc(OC)cc2)c1 (stereo not drawn) [Compound A4] | – | – | 8.4 | –
14 | CCC(C)(C)C(=O)C(=O)N1CCCCC1C(=O)OC(CCc1ccc(OC)c(OC)c1)c1cccc(OCC(=O)NC(CC(N)=O)C(=O)NC(Cc2ccccc2)C(O)CN(CC(C)C)S(=O)(=O)c2ccc(N)cc2)c1 (stereo not drawn) [Compound A14] | – | – | 3.5 | –
